# Experimental data reported in US12398117B2, “Heteroarylamidopyridinol derivative and pharmaceutical composition comprising same as active ingredient for prevention or treatment of autoimmune disease” (INNOVO THERAPEUTICS INC., priority 2019, dated 2025).
# Assays:
# [1] = test system: adhesion of intestinal epithelial cells (HT-29) and monocytic cells (U937) induced by TNF-α; assay: Inhibition of TNF-α-induced adhesion of monocytes and intestinal epithelial cells; assay type: cell-based, human; conditions: Homo sapiens; for inhibition at 1 µM: test drug 1 μM, TNF-α 10 ng/mL, HT-29/U937, read-out: Inhibitory activity (%)
# Procedure: HT-29 human colon cancer-derived epithelial cells and U937 human-derived monocytes were cultured in RPMI 1640 medium containing 10% FBS and 1% penicillin/streptomycin (PS) in a 37° C., 5% CO2 incubator. When the cells grew more than 80% of the bottom area of the culture flask, they were passaged at a ratio of 1:3 and used in this experiment. HT-29 cells were cultured in a 24-well plate at the density of 2×10^5 cells/cm^2, and the test drug was pretreated in a medium containing 1% FBS and 1% PS for 1 hour. Thereafter, 10 μg/mL of BCECF-AM was treated thereto and reacted at 37° C. for 30 minutes. U937 cells loaded with BCECF and TNF-α (10 ng/mL) were reacted with HT-29 cells previously treated with the test drug at 37° C. for 3 hours. Upon completion of the reaction, the medium was removed, and the culture flask was washed twice with PBS to remove non-adherent U937 cells. In the next step, the cells were lysed by treating with 0.1% Triton X-100 (0.1 M Tris) and reacted at room temperature for 30 minutes. Then, fluorescence was measured and quantified using a fluostar optima microplate reader (BMG Labtechnologies, Germany) (Carvalho et al., 1996; Thapa et al., 2008).
# [2] = test system: adhesion of intestinal epithelial cells (HT-29) and monocytic cells (U937) induced by IL-6; assay: Inhibition of IL-6-induced adhesion of monocytes and intestinal epithelial cells; assay type: cell-based, human; conditions: Homo sapiens, 3 h; test drug 1 μM; IL-6 10 ng/mL; HT-29/U937; read-out: inhibitory activity (%)
# Procedure: The inhibitory activity test for intestinal epithelial cell-monocyte adhesion by IL-6 was performed using the same method as in the case of TNF-α. HT-29 cells were cultured in a 24-well plate at the density of 2×10^5 cells/cm^2, and the test drug was pretreated in a medium containing 1% FBS and 1% PS for 1 hour. Thereafter, 10 μg/mL of BCECF-AM was treated thereto and reacted at 37° C. for 30 minutes. U937 cells loaded with BCECF and IL-6 (10 ng/mL) were reacted with HT-29 cells previously treated with the test drug at 37° C. for 3 hours. Upon completion of the reaction, the medium was removed, and the culture flask was washed twice with PBS to remove non-adherent U937 cells. In the next step, the cells were lysed by treating with 0.1% Triton X-100 (0.1 M Tris) and reacted at room temperature for 30 minutes. Then, fluorescence was measured and quantified using a fluostar optima microplate reader (BMG Labtechnologies, Germany).
# [3] = test system: TNBS-induced inflammatory bowel disease rat model; assay: Oral efficacy in TNBS-induced inflammatory bowel disease rat model; assay type: in vivo, Sprague Dawley rats
# Procedure: (§1) Sprague Dawley rats aged 7-8 weeks were purchased from OrientBio (Korea), stabilized with general solid feed for 3 days, and then used in this experiment. Feed and water were freely supplied during the experiment period, and the temperature of the breeding room was maintained at 25±1° C. and the relative humidity at 50±10%. Lighting management was controlled in a 12-hour light-dark cycle by an automatic lighting controller.
# After anesthetizing rats that had been fasted for 24 hours with diethyl ether, 0.8 mL of 5% TNBS diluted with 50v/v % ethanol was slowly injected into the lumen of the colon using a 1 mL syringe connected to a polyethylene catheter, and then, the rats were left standing for 60 seconds in an inverted position in order to prevent 5% TNBS from leaking into the anus. For the control group, only vehicle [50v/v % ethanol] was injected in the same manner as in the other groups (Thapa et al., 2008).
# In order to investigate the effect of the drug, the drug was administered at a constant time every day for 5 days from the day after the TNBS treatment.
# Changes in body weight of each rat were observed from the fasting stage to the TNBS administration and drug administration process using a digital mass meter.
# The colon of the rat was extracted, and the tissue 5-6 cm away from the anus was cut into a length of 1 cm, and the weight of the tissue was measured.
# The weighed rat tissues were fixed with 4% paraformaldehyde solution, and then transferred to 30% sucrose solution. When the tissues subside, they were taken out and cut into […] thick using a cryomicrotome (Microm HM 450, Thermo Fisher Scientific, Germany) and stored in a cryopreservation solution. After washing the tissue section with KPBS, the tissue section was attached to a slide glass, dried, and then stained with hematoxylin & Eosin and observed under a microscope.
# [4] = test system: DSS-induced chronic enteritis mouse model; assay: Oral efficacy in DSS-induced chronic enteritis mouse model; assay type: in vivo, C57BL/6 mice; conditions: chronic enteritis (DSS-water-DSS, total 35 days), mouse
# Procedure: as §1, with “C57BL/6 mice” for “Sprague Dawley rats”, “7” for “3”
# Enteritis was induced in mice by allowing them to freely ingest drinking water containing 2% DSS salt (M.W. 36,000˜50,000, MP Biomedicals, LLC, OH, USA). For the chronic enteritis model, DSS was administered using a schedule of DSS administration for the first 7 days, administration of normal drinking water for 14 days, repeated administration of DSS for 7 days from the 21st day, and administration of normal drinking water for 7 days. The drug was administered once a day, 6 days a week from the first day of DSS treatment (FIG. 2A). […] In order to measure the dose-dependent therapeutic effect of the drug in the acute enteritis model, DSS was administered for 5 days to induce enteritis, and then the drug was administered for 14 days to measure the degree of recovery and treatment of enteritis (FIG. 3A). The drug was administered orally once daily for […] at a fixed time.
# Changes in body weight of each mouse were observed during the DSS and drug administration using a digital mass meter.
# The colon of the mouse was extracted, and the length and weight from the anus to the cecum were measured.
# Tissue staining was performed in the same manner as in the case of hematoxylin/eosin staining of the rat colon tissue, and scoring indexes of mucosal damage and recovery were applied in the same way.
# [5] = oral 1 mg/kg, 5 days, fixed-dose test (Table 6)
# [6] = 10 mg/kg, dose-dependence test (Table 7)
SMILES,inhibition at 1 µM [1],inhibition at 1 µM [2],"Body weight recovery rate (%) [3, 5]","Intestinal weight recovery rate (%) [3, 5]",also measured
"Cc1nc(NC(=O)c2cc3cc(Br)ccc3[nH]2)c(C)c(C)c1O [Compound X-07, 5-bromo-N-(5-hydroxy-3,4,6-trimethylpyridin-2-yl)-1H-indole-2-carboxamide]",88.9%,80.3%,72.9%,94.9%,
"Cc1nc(NC(=O)c2sc3cc(F)ccc3c2Cl)c(C)c(C)c1O [Compound X-24, 3-chloro-6-fluoro-N-(5-hydroxy-3,4,6-trimethylpyridin-2-yl)benzo[b]thiophene-2-carboxamide]",,,86.6%,97.4%,IC50 ([1]; inhibition of adhesion by TNF-α): 230 nM; Body weight recovery rate (%) ([4]; 1 mg/kg): 22.8%; Intestinal weight recovery rate (%) ([4]; 1 mg/kg): 58.1%; Body weight recovery rate (%) ([4]; 3 mg/kg): 73.3%; Intestinal weight recovery rate (%) ([4]; 3 mg/kg): 98.2%
"C[C@]12C=CC(=O)C=C1CC[C@H]1[C@@H]3C[C@@H](O)[C@](O)(C(=O)CO)[C@@]3(C)C[C@H](O)[C@@]12F [Triamcinolone, reference compound]",,,,,"Body weight recovery rate (%) [3, 6]: 70.0%; Intestinal weight recovery rate (%) [3, 6]: 84.5%"
"Cc1nc(NC(=O)c2sc3cc(F)ccc3c2Cl)c(C)c(C)c1OCC(=O)Nc1ccccc1 [XI-07, 3-chloro-6-fluoro-N-(3,4,6-trimethyl-5-(2-oxo-2-(phenylamino)ethoxy)pyridin-2-yl)benzo[b]thiophene-2-carboxamide]",84.1%,72.8%,82.9%,91.0%,
"Cc1nc(NC(=O)c2sc3cc(F)ccc3c2Cl)c(C)c(C)c1OC(=O)c1ccccc1 [XI-08, 6-(3-chloro-6-fluorobenzo[b]thiophene-2-carboxamido)-2,4,5-trimethylpyridin-3-yl benzoate]",7.7%,6.8%,,,
"Cc1nc(NC(=O)c2sc3cc(F)ccc3c2Cl)c(C)c(C)c1OC(=O)c1ccc(F)cc1 [XI-09, 6-(3-chloro-6-fluorobenzo[b]thiophene-2-carboxamido)-2,4,5-trimethylpyridin-3-yl 4-fluorobenzoate]",3.4%,21.2%,,,
"COc1cccc(C(=O)Oc2c(C)nc(NC(=O)c3sc4cc(F)ccc4c3Cl)c(C)c2C)c1 [XI-10, 6-(3-chloro-6-fluorobenzo[b]thiophene-2-carboxamido)-2,4,5-trimethylpyridin-3-yl 3-methoxybenzoate]",46.5%,13.1%,,,
"COc1ccc(C(=O)Oc2c(C)nc(NC(=O)c3sc4cc(F)ccc4c3Cl)c(C)c2C)cc1 [XI-11, 6-(3-chloro-6-fluorobenzo[b]thiophene-2-carboxamido)-2,4,5-trimethylpyridin-3-yl 4-methoxybenzoate]",77.2%,67%,,,
"Cc1nc(NC(=O)c2sc3cc(F)ccc3c2Cl)c(C)c(C)c1OC(=O)c1ccc(F)cn1 [XI-12, 6-(3-chloro-6-fluorobenzo[b]thiophene-2-carboxamido)-2,4,5-trimethylpyridin-3-yl 5-fluoropicolinate]",31.9%,18%,,,
"Cc1nc(NC(=O)c2sc3cc(F)ccc3c2Cl)c(C)c(C)c1OC(=O)c1ccc(F)nc1 [XI-13, 6-(3-chloro-6-fluorobenzo[b]thiophene-2-carboxamido)-2,4,5-trimethylpyridin-3-yl 6-fluoronicotinate]",20.7%,15.2%,,,
"Cc1nc(NC(=O)c2sc3cc(F)ccc3c2Cl)c(C)c(C)c1OC(=O)c1ccc(Cl)cn1 [XI-14, 6-(3-chloro-6-fluorobenzo[b]thiophene-2-carboxamido)-2,4,5-trimethylpyridin-3-yl 5-chloropicolinate]",38.1%,26.8%,,,
"Cc1nc(NC(=O)c2sc3cc(F)ccc3c2Cl)c(C)c(C)c1OC(=O)C12CC3CC(CC(C3)C1)C2 [XI-16, 6-(3-chloro-6-fluorobenzo[b]thiophene-2-carboxamido)-2,4,5-trimethylpyridin-3-yl (3r,5r,7r)-adamantane-1-carboxylate]",29.2%,20.3%,,,
"Cc1nc(NC(=O)c2sc3cc(F)ccc3c2Cl)c(C)c(C)c1OC(=O)N1CCOCC1 [XI-17, 6-(3-chloro-6-fluorobenzo[b]thiophene-2-carboxamido)-2,4,5-trimethylpyridin-3-yl morpholine-4-carboxylate]",≥ 50%,59.6%,60.2%,79.8%,
